Key:
[1] = target: T1, Phosphodiesterase 4 (Homo sapiens) (UniProt P27815+Q08499+Q07343+Q08493); experiment: Inhibition of Phosphodiesterase 4 from U937 cells at 100 uM; format: cell-based; details: U-937
PBMC [2] = experiment: Inhibition of lipopolysaccharide stimulated TNF-alpha release in human PBMC; format: functional, cell-based
Homo sapiens = organism: Homo sapiens; experiment: Inhibition of lipopolysaccharide stimulated TNF-alpha release in human whole blood; format: functional
PBMC [3] = experiment: Inhibition of lipopolysaccharide stimulated TNF-alpha release in human PBMC at 100 uM; format: functional
[4] = target: T1, Phosphodiesterase 4 (Homo sapiens); experiment: Inhibition of PDE4 from U937 cells at 100 uM; format: cell-based; details: U-937

Row | Compound | inhibition [1] [%] | IC50 (PBMC [2]) [nM] | IC50 (Homo sapiens) [nM] | inhibition at 100 µM (PBMC [3]) [%] | inhibition [4] [%]
1 | Nc1cccc2c1C(=O)N(C1CCC(=O)NC1=O)C2=O (stereo unspecified) [POMALIDOMIDE] | < 50 | 13 | 25 | 95 | –
2 | Nc1ccc2c(c1)C(=O)N(C1CCC(=O)NC1=O)C2=O (stereo unspecified) | – | – | – | 55 | –
3 | CC1(N2C(=O)c3cccc(N)c3C2=O)CCC(=O)NC1=O (stereo unspecified) | – | 44 | 216 | 98 | < 50
4 | Nc1ccc2c(c1)C(=O)N(C1CCC(=O)NC1=O)C2 (stereo unspecified) | – | – | – | 12 | –
5 | Nc1ccc2c(c1)CN(C1CCC(=O)NC1=O)C2=O (stereo unspecified) | – | – | – | 15 | –
6 | Nc1cccc2c1CN(C1CCC(=O)NC1=O)C2=O (stereo unspecified) [LENALIDOMIDE] | < 50 | – | 480 | 74 | –
7 | Nc1cccc2c1C(=O)N([C@H]1CCC(=O)NC1=O)C2=O | – | 3.9 | 14 | 99 | –
8 | Nc1cccc2c1C(=O)N(C1CCC(=O)NC1=O)C2 (stereo unspecified) | – | – | – | 18 | –
9 | Nc1cccc2c1C(=O)N([C@@H]1CCC(=O)NC1=O)C2=O | – | 93 | 73 | 85 | –

Reference: ChEMBL document CHEMBL1131744, “Amino-substituted thalidomide analogs: potent inhibitors of TNF-alpha production” (Bioorg Med Chem Lett, 1999)
